Test results published in patent US20230139593A1, “TREATMENT OF DISORDERS ASSOCIATED WITH OXIDATIVE STRESS AND COMPOUNDS FOR SAME” (The University of Adelaide, priority 2020, published 2023).
Where a name gives a salt, the structure may show the parent alone.

Key:
[1] = test system: NRF2/ARE luciferase reporter HEK293 cells; experiment: Cytotoxicity in the reporter cell assay; assay type: cell-based
Description: (§1) NRF2/ARE responsive luciferase reporter HEK293 cells (Signosis, Santa Clara, USA) were seeded at 1×10^5 cells/well in 48-well plates (Corning, Tewksbury, USA) in supplemented Dulbecco's Modified Eagle Medium (DMEM) containing 4.5 g/L glucose (HyClone, Pittsburgh, USA) (10% fetal bovine serum (FBS) (ThermoFisher Scientific, Waltham, USA) and 1% penicillin/streptomycin (Gibco, Waltham, USA)) and cultured overnight at 37° C., 5% CO2, in a humidified environment. The next morning, the media was replaced with supplemented DMEM (1% FBS (ThermoFisher Scientific) and 1% penicillin/streptomycin (Gibco)). Cells were then treated with a concentration range of each example of compounds described in the invention or monomethyl fumarate (0-100 μM), together with 10 μM hydrogen peroxide (H2O2) (Sigma Aldrich, St Louis, USA), 10 μM peroxynitrite (PN) (Sigma Aldrich), or supplemented media (negative control). tert-Butylhydroquinone (tBHQ; 10 μM) (Sigma-Aldrich) was used as positive control. Each condition was run in triplicate and observations confirmed over at least two additional replications.

NRF2/ARE = NRF2/ARE responsive luciferase reporter assay in HEK293 cells; assay type: cell-based; conditions: 16 h; for NRF2 activity in the presence of H2O2 or ONOO− compared to media control: 10 μM H2O2 or 10 μM ONOO−, 0-100 μM compound; for NRF2 activity relative to MMF: 0-100 μM
Description: as §1
After 16 h of incubation with examples of compounds described in the invention and ROS/RNS, cells were washed gently with 500 μL PBS (Sigma-Aldrich) and then incubated in 40 μL passive lysis buffer (Promega, Madison, USA) at room temperature. After 20 mins, 30 μL was transferred from each well to a 96-well clear-bottom, white-wall plate (Corning). Luciferase substrate (Signosis; 150 μL) was added to each well and gently mixed. Luminesence was immediately read on a Synergy HTX multi-mode microplate reader (BioTek, Winooski, USA).
Differences between in vitro concentration-response relationships were determined by comparing the slopes of fitted functions for shared parameters. Linear models were selected as the pharmacologically-relevant concentrations tested were within the linear range of the concentration-response functions. Mechanical allodynia was analyzed as the interpolated 50% thresholds (absolute threshold). One-way ANOVA was used to confirm that there were no baseline differences in absolute thresholds or dynamic scores between treatment groups. Differences between treatment groups for behavior were determined using repeated measures two-way ANOVA, followed by Tukey's or Sidaks post hoc tests. Biochemical data were analyzed by one- or two-way ANOVA, followed by Tukey's post hoc tests. Results are expressed as mean±standard deviation (SD). P<0.05 was considered statistically significant.

leukocytes = experiment: Absolute leukocyte count in naive mice; assay type: in vivo; conditions: 350 μmol/kg oral, daily for 10 days
Description: Compounds were suspended with methylcellulose (viscosity 15 cP, 2% w/v in water;) and administered by oral gavage. For SNI anti-nociception, compounds were administered for 3 days (350 μmol/kg/day), beginning 7 days after SNI, and continuing for 3 (reflex tests) or 7 days (conditioned place preference tests). For leukopenia assessment, compounds were administered to naïve mice for 10 days (350 μmol/kg/day). Equivolume methylcellulose (2% w/v) was used as vehicle control for all compounds. An independent investigator dosed the mice in order to maintain blinding to treatment groups for the other investigators who performed the behavioral testing.
Leukocytes from cardiac blood were stained with Turk's solution according to manufacturer instructions, and manually counted on a hemocytometer by an experimenter who was blinded to treatment conditions.

[2] = test system: spared nerve injury (SNI) model of neuropathic pain; experiment: Conditioned place preference assay (spontaneous pain) after spared nerve injury; assay type: in vivo; conditions: 350 μmol/kg oral, daily for 7 days, nerve-injured mice
Description: Pathogen-free adult male and female C57BL/6J mice (8 weeks old on arrival; The Jackson Laboratory, Bar Harbor, USA) were used. Mice were housed five per cage in a light- and temperature-controlled room (12:12-h light-dark cycle, light on at 7:00 AM) with food and water available ad libitum. All procedures were approved by the MD Anderson Cancer Center Animal Care and Use Committee. SNI was performed under inhaled isoflurane anesthesia. The tibial and common peroneal nerves were isolated, tightly ligated with 6-0 silk, and transected immediately distal to the ligation. The sural nerve was left intact. Animals were monitored post-operatively until fully ambulatory prior to return to their home cage. Compounds were suspended with methylcellulose (viscosity 15 cP, 2% w/v in water;) and administered by oral gavage. For SNI anti-nociception, compounds were administered for 3 days (350 μmol/kg/day), beginning 7 days after SNI, and continuing for 3 (reflex tests) or 7 days (conditioned place preference tests). For leukopenia assessment, compounds were administered to naïve mice for 10 days (350 μmol/kg/day). Equivolume methylcellulose (2% w/v) was used as vehicle control for all compounds. An independent investigator dosed the mice in order to maintain blinding to treatment groups for the other investigators who performed the behavioral testing. […] The time spent in the light chamber was recorded. […]

[3] = test system: spared nerve injury (SNI) model of neuropathic pain; experiment: Dynamic allodynia (paintbrush stroking) after spared nerve injury; assay type: in vivo; conditions: 350 μmol/kg oral, daily for 3 days, SNI mice, ipsilateral paw
Description: Pathogen-free adult male and female C57BL/6J mice (8 weeks old on arrival; The Jackson Laboratory, Bar Harbor, USA) were used. Mice were housed five per cage in a light- and temperature-controlled room (12:12-h light-dark cycle, light on at 7:00 AM) with food and water available ad libitum. All procedures were approved by the MD Anderson Cancer Center Animal Care and Use Committee. SNI was performed under inhaled isoflurane anesthesia. The tibial and common peroneal nerves were isolated, tightly ligated with 6-0 silk, and transected immediately distal to the ligation. The sural nerve was left intact. Animals were monitored post-operatively until fully ambulatory prior to return to their home cage. […] Dynamic mechanical hypersensitivity was measured by light stroking (velocity is 2 cm/s) of the external lateral side of the injured hind paw in the direction from heel to toe with a paintbrush. The paw withdrawal response was scored according to the following criteria, score=0: walking away or occasionally very brief paw lifting […]; score=1: sustained lifting (>2 s) of the stimulated paw toward the body; score=2: a strong lateral lifting above the level of the body; score=3: flinching or licking of the affected paw. […] Differences between in vitro concentration-response relationships were determined by comparing the slopes of fitted functions for shared parameters. […]

[4] = test system: spared nerve injury (SNI) model of neuropathic pain; experiment: Tactile allodynia (von Frey test) after spared nerve injury; assay type: in vivo, mice; conditions: for tactile allodynia: 350 μmol/kg oral, daily for 3 days, SNI mice, ipsilateral paw
Description: Pathogen-free adult male and female C57BL/6J mice (8 weeks old on arrival; The Jackson Laboratory, Bar Harbor, USA) were used. Mice were housed five per cage in a light- and temperature-controlled room (12:12-h light-dark cycle, light on at 7:00 AM) with food and water available ad libitum. All procedures were approved by the MD Anderson Cancer Center Animal Care and Use Committee. SNI was performed under inhaled isoflurane anesthesia. The tibial and common peroneal nerves were isolated, tightly ligated with 6-0 silk, and transected immediately distal to the ligation. The sural nerve was left intact. Animals were monitored post-operatively until fully ambulatory prior to return to their home cage. Compounds were suspended with methylcellulose (viscosity 15 cP, 2% w/v in water;) and administered by oral gavage. For SNI anti-nociception, compounds were administered for 3 days (350 μmol/kg/day), beginning 7 days after SNI, and continuing for 3 (reflex tests) or 7 days (conditioned place preference tests). For leukopenia assessment, compounds were administered to naïve mice for 10 days (350 μmol/kg/day). Equivolume methylcellulose (2% w/v) was used as vehicle control for all compounds. An independent investigator dosed the mice in order to maintain blinding to treatment groups for the other investigators who performed the behavioral testing. Testing was conducted blind with respect to group assignment. […] Tactile allodynia was measured using the von Frey test. The 50% paw withdrawal threshold was determined using the “up-down” method. Differences between in vitro concentration-response relationships were determined by comparing the slopes of fitted functions for shared parameters. […] Mechanical allodynia was analyzed as the interpolated 50% thresholds (absolute threshold). […] Differences between treatment groups for behavior were determined using repeated measures two-way ANOVA, followed by Tukey's or […] post hoc tests. Biochemical data were analyzed by one- or two-way ANOVA, followed by Tukey's post hoc tests. Results are expressed as mean±standard deviation (SD). […]

[5] = measured, Arch Dermatol Res. 2010, 302(7), 531-8; cited from earlier work

| SMILES | NRF2 activity in the presence of H2O2 or ONOO− compared to media control (NRF2/ARE) | spontaneous pain: preference for the retigabine-paired light chamber [2] | dynamic allodynia [3] | tactile allodynia [4] | NRF2 activity relative to MMF (NRF2/ARE) | other results |
| --- | --- | --- | --- | --- | --- | --- |
| COC(=O)/C=C/C(=O)C(=O)OC [Example A, 1,5-dimethyl (2E)-4-oxopent-2-enedioate] | increased NRF2 activity in the presence of H2O2 or ONOO^− | did not develop a preference for the retigabine-paired light chamber | reversed | reversed | – | toxicity in the concentration range tested ([1]; 0-100 μM): no toxicity in the concentration range tested; absolute leukocyte count (leukocytes): did not cause a decline in absolute leukocyte count; efficacy on tactile and dynamic allodynia relative to diroximel fumarate ([4]; 350 μmol/kg oral each, 3 days, both measures): greater efficacy than diroximel fumarate |
| COC(=O)/C=C/C(=O)C(=O)NCc1ccccc1 [Example C, methyl (2E)-4-(benzylcarbamoyl)-4-oxobut-2-enoate] | did not selectively increase NRF2 activity | – | – | – | activated NRF2 to a greater extent than MMF | cytotoxic concentration [1]: above 50 μM |
| COC(=O)/C=C/C(=O)C(=O)c1ccccc1 [Example D, methyl (2E)-4,5-dioxo-5-phenylpent-2-enoate] | increased NRF2 activity in the presence of H2O2 or ONOO^− | – | – | – | at lower levels than MMF | – |
| COC(=O)/C=C/C(=O)C(=O)O [Example J, (3E)-5-methoxy-2,5-dioxopent-3-enoic acid] | – | – | reversed | reversed | – | – |
| COC(=O)/C=C/C(=O)O [MMF, monomethyl fumarate] | – | – | – | – | – | pKa [5]: 3.63 |
| COC(=O)/C=C/C(=O)OCCN1C(=O)CCC1=O [diroximel fumarate, reference compound] | – | did not develop a preference for the retigabine-paired light chamber | – | – | – | – |
